22 compounds from US12024506B2, “Compounds” (Oxford University Innovation Limited, priority 2018, dated 2024) can be followed below.

For test [1], the system named is H358 cells (ATCC CRL-5807). The test is described as follows: Cell viability assay 1 (CellTiter-Glo), H358 cells. The test is classed as cell-based. The settings on record: Homo sapiens, NCI-H358, 48 h, first value of the cell, read-out: Cell Viability H358 (concentration that decreases cell viability by 50%). Summed up: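 H358 cells were grown in RPMI-1640 with 10% FCS and 2 mM L-glutamine, plated at 5000 cells/well and allowed to adhere overnight. Compound was added in 0.5% DMSO final for 48 h at 37° C. Viability was read by CellTiter-Glo luminescence, with the 50% viability-reducing concentration derived from dose-response curves.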

Test [2] deals with DLD1 cells (ATCC CCL-221). The test is described as follows: Cell viability assay 1 (CellTiter-Glo), DLD1 cells. It counts as cell-based. The settings on record: Homo sapiens, DLD-1 cells, 48 h, second value of the cell, read-out: Cell Viability DLD-1 (concentration that decreases cell viability by 50%). Put shortly: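 DLD1 cells grown in RPMI-1640 with 10% FCS, 2 mM L-glutamine, 37 °C, 5% CO2, plated overnight then exposed to compound (0.5% DMSO) for 48 h. Viability by CellTiter-Glo luminescence; value is concentration reducing viability by 50% from dose-response curves.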
In general terms: In ATP-based viability assays light output follows the ATP content of the culture.

In test [3] the target is T1, GST-human KRas166 (G12V) GPPNHP (Homo sapiens, UniProt P01116, G12V).
T1 construct: made in house; host or cells: E. coli C41(DE3)
Put plainly: KRas small-molecule screening by SPR (Biacore T200). It counts as binding. The settings on record: compound 100 uM, 5% DMSO buffer; immobilised GST-KRas166 (G12V) GPPNHP. Put shortly:
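GST-KRas166 G12V loaded with GPPNHP, captured on anti-GST CM5 chip at 10,000–15,000 RU, GST reference channel. Compounds run at 100 uM in buffer with 100 mM NaCl, 5 mM MgCl2, 5% DMSO, with DMSO solvent correction; Rmax for 1:1 binding taken as 63 RU.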
For orientation: Surface plasmon resonance follows binding to a sensor surface in real time, without labels.

pIC50: −log10 of the molar value.

Take `COc1nc(-c2cccc3c2OCCO3)ccc1Nc1ccc(CNCc2cc[nH]c(=O)c2)cc1` [Example 170, 4-({4-[6-(2,3-Dihydro-benzo[1,4]dioxin-5-yl)-2-methoxy-pyridin-3-ylamino]-benzylamino}-methyl)-1H-pyridin-2-one]: the pIC50 in test [1] was 4.87; in test [2], 5.70. Besides, the “SPR Response Units” value in test [3] came out at 284 Response Units.

Consider `COc1nc(-c2cccc3c2OCCO3)ccc1Nc1ccc(CNCC2CCN(C(=O)OC(C)(C)C)CC2)cc1` [Example 171, 4-({4-[6-(2,3-Dihydro-benzo[1,4]dioxin-5-yl)-2-methoxy-pyridin-3-ylamino]-benzylamino}-methyl)-piperidine-1-carboxylic acid tert-butyl ester], for which the pIC50 in test [1] is 5.18; in test [2] it was 6.85. In addition, the “SPR Response Units” value in test [3] amounted to 30 Response Units.

Regarding `COc1nc(-c2cccc3c2OCCO3)ccc1Nc1ccc(CNCC2CCC(=O)NC2)cc1` (stereo not drawn) [Example 172, 5-({4-[6-(2,3-Dihydro-benzo[1,4]dioxin-5-yl)-2-methoxy-pyridin-3-ylamino]-benzylamino}-methyl)-piperidin-2-one], the pIC50 in test [1] was 4.63; in test [2], 5.33. Besides, in test [3], the “SPR Response Units” value amounted to 174 Response Units.

Turning to `COc1nc(-c2cccc3c2OCCO3)ccc1Nc1ccc(CNCC2CNC(=O)C2)cc1` (stereo not drawn) [Example 173, 4-({4-[6-(2,3-Dihydro-benzo[1,4]dioxin-5-yl)-2-methoxy-pyridin-3-ylamino]-benzylamino}-methyl)-pyrrolidin-2-one], the results for the pIC50 in test [1] and in test [2] were 5.13 and 5.40, respectively. The “SPR Response Units” value in test [3] amounted to 147 Response Units.

`COc1nc(-c2cccc3c2OCCO3)ccc1Nc1ccc(C(=O)NCc2cccnc2)cc1` [Example 175, 4-[6-(2,3-Dihydro-benzo[1,4]dioxin-5-yl)-2-methoxy-pyridin-3-ylamino]-N-pyridin-3-ylmethyl-benzamide]: the pIC50 is 4.80 in test [1] and 5.09 in test [2]. The “SPR Response Units” value in test [3] turned out to be 63 Response Units.

In the case of `COc1nc(-c2cccc3c2OCCO3)ccc1Nc1ccc(CNCC2CCNCC2)cc1` [Example 178, [6-(2,3-Dihydro-benzo[1,4]dioxin-5-yl)-2-methoxy-pyridin-3-yl]-(4-{[(piperidin-4-ylmethyl)-amino]-methyl}-phenyl)-amine], the results for the pIC50 in test [1] and in test [2] were 5.74 and 6.57, respectively. The “SPR Response Units” value in test [3] turned out to be 150 Response Units.

Consider `COc1nc(-c2cccc3c2OCCO3)ccc1Nc1ccc(C(=O)NCC2CCNCC2)cc1` [Example 179, 4-[6-(2,3-Dihydro-benzo[1,4]dioxin-5-yl)-2-methoxy-pyridin-3-ylamino]-N-piperidin-4-ylmethyl-benzamide], for which the pIC50 is 5.12 in test [1] and 6.41 in test [2]. In test [3], the “SPR Response Units” value is 162 Response Units.

`COc1nc(-c2cccc3c2OCCO3)ccc1Nc1cccc(C(=O)NCC2CCNCC2)c1` [Example 180, 3-[6-(2,3-Dihydro-benzo[1,4]dioxin-5-yl)-2-methoxy-pyridin-3-ylamino]-N-piperidin-4-ylmethyl-benzamide]: the pIC50 was 5.07 in test [1] and 6.19 in test [2]. Moreover, in test [3], the “SPR Response Units” value is 197 Response Units.

Consider `COc1nc(-c2cccc3c2OCCO3)ccc1Nc1cccc(C(=O)NCC2CCN(Cc3ccccc3)CC2)c1` [Example 181, N-(1-Benzyl-piperidin-4-ylmethyl)-3-[6-(2,3-dihydro-benzo[1,4]dioxin-5-yl)-2-methoxy-pyridin-3-ylamino]-benzamide], for which the pIC50 was 5.37 in test [1] and 5.74 in test [2]. Further, the “SPR Response Units” value in test [3] is reported as 149 Response Units.

Turning to `COc1nc(-c2cccc3c2OCCO3)ccc1Nc1cccc(C(=O)NCC2CCNC(=O)C2)c1` (stereo not drawn) [Example 182, 3-[6-(2,3-Dihydro-benzo[1,4]dioxin-5-yl)-2-methoxy-pyridin-3-ylamino]-N-(2-oxo-piperidin-4-ylmethyl)-benzamide], the pIC50 in test [1] is 4.57; in test [2], 4.95. The “SPR Response Units” value in test [3] came out at 198 Response Units.

Consider `NCc1ccc(C(=O)N2CCN(c3cccc4c3OCCO4)CC2)cc1` [Example 184, (4-Aminomethyl-phenyl)-[4-(2,3-dihydro-benzo[1,4]dioxin-5-yl)-piperazin-1-yl]-methanone], for which the pIC50 in test [1] is 5.44; in test [2], 5.92. In test [3], the “SPR Response Units” value is 10 Response Units.

For the compound `COc1nc(-c2cccc3c2OCCO3)ccc1Nc1ccc(C(=O)NCC2CCN(Cc3ccccc3)CC2)cc1` [Example 185, N-(1-Benzyl-piperidin-4-ylmethyl)-4-[6-(2,3-dihydro-benzo[1,4]dioxin-5-yl)-2-methoxy-pyridin-3-ylamino]-benzamide], the pIC50 was 5.62 in test [1] and 5.92 in test [2]. For the same compound, in test [3], the “SPR Response Units” value is listed as 122 Response Units.

For the compound `COc1nc(-c2cccc3c2OCCO3)ccc1Nc1ccc(CNCC2CCN(C)CC2)cc1` [Example 186, [6-(2,3-Dihydro-benzo[1,4]dioxin-5-yl)-2-methoxy-pyridin-3-yl]-(4-{[(1-methyl-piperidin-4-ylmethyl)-amino]-methyl}-phenyl)-amine], the figures for the pIC50 in test [1] and in test [2] were 5.62 and 6.52, respectively. For the same compound, the “SPR Response Units” value in test [3] is listed as 636 Response Units.

As for `COc1nc(-c2cccc3c2OCCO3)ccc1Nc1ccc(CNCC2CCN(Cc3ccccc3)CC2)cc1` [Example 187, (4-{[(1-Benzyl-piperidin-4-ylmethyl)-amino]-methyl}-phenyl)-[6-(2,3-dihydro-benzo[1,4]dioxin-5-yl)-2-methoxy-pyridin-3-yl]-amine], the pIC50 is 4.59 in test [1] and 5.66 in test [2]. Further, the “SPR Response Units” value in test [3] is reported as 916 Response Units.

With `COc1nc(-c2cccc3c2OCCO3)ccc1Nc1ccc(CNCc2cccc(F)n2)cc1` [Example 188, [6-(2,3-Dihydro-benzo[1,4]dioxin-5-yl)-2-methoxy-pyridin-3-yl]-(4-{[(6-fluoro-pyridin-2-ylmethyl)-amino]-methyl}-phenyl)-amine], the pIC50 in test [1] is 4.56; in test [2] it was 4.31. The “SPR Response Units” value in test [3] was determined as 103 Response Units.

Regarding `COc1nc(-c2cccc3c2OCCO3)ccc1Nc1cccc(CNCC2CCN(C)CC2)c1` [Example 189, [6-(2,3-Dihydro-benzo[1,4]dioxin-5-yl)-2-methoxy-pyridin-3-yl]-(3-{[(1-methyl-piperidin-4-ylmethyl)-amino]-methyl}-phenyl)-amine], the pIC50 in test [1] is 4.35; in test [2] it was 5.85. Besides, the “SPR Response Units” value in test [3] was determined as 552 Response Units.

Take `COc1nc(-c2cccc3c2OCCO3)ccc1Nc1cccc(CNCC2CCN(Cc3ccccc3)CC2)c1` [Example 190, (3-{[(1-Benzyl-piperidin-4-ylmethyl)-amino]-methyl}-phenyl)-[6-(2,3-dihydro-benzo[1,4]dioxin-5-yl)-2-methoxy-pyridin-3-yl]-amine]: the results for the pIC50 in test [1] and in test [2] were 5.07 and 5.80, respectively. In addition, the “SPR Response Units” value in test [3] is reported as 665 Response Units.

As to `COc1nc(-c2cccc3c2OCCO3)ccc1Nc1cccc(CNCC2CCN(C(C)=O)CC2)c1` [Example 191, 1-[4-({3-[6-(2,3-Dihydro-benzo[1,4]dioxin-5-yl)-2-methoxy-pyridin-3-ylamino]-benzylamino}-methyl)-piperidin-1-yl]-ethanone], the pIC50 in test [1] was 4.04; in test [2], 5.10. The “SPR Response Units” value in test [3] was 327 Response Units.

Regarding `COc1nc(-c2cccc3c2OCCO3)ccc1Nc1cccc(CNCC2CCC(=O)N2)c1` (stereo not drawn) [Example 192, 5-({3-[6-(2,3-Dihydro-benzo[1,4]dioxin-5-yl)-2-methoxy-pyridin-3-ylamino]-benzylamino}-methyl)-pyrrolidin-2-one], the figures for the pIC50 in test [1] and in test [2] were below 3.82 and 4.94, respectively. The “SPR Response Units” value in test [3] is recorded as 321 Response Units.

With `COc1nc(-c2cccc3c2OCCO3)ccc1Nc1cccc(CNCc2cc[nH]c(=O)c2)c1` [Example 193, 4-({3-[6-(2,3-Dihydro-benzo[1,4]dioxin-5-yl)-2-methoxy-pyridin-3-ylamino]-benzylamino}-methyl)-1H-pyridin-2-one], the figures for the pIC50 in test [1] and in test [2] were 4.28 and 4.83, respectively. Further, the “SPR Response Units” value in test [3] is 388 Response Units.

Consider `COc1nc(-c2cccc3c2OCCO3)ccc1Nc1cccc(CNCC2CCNC(=O)C2)c1` (stereo not drawn) [Example 194, 4-({3-[6-(2,3-Dihydro-benzo[1,4]dioxin-5-yl)-2-methoxy-pyridin-3-ylamino]-benzylamino}-methyl)-piperidin-2-one], for which the pIC50 in test [1] is below 3.82; in test [2], 4.95. In addition, the “SPR Response Units” value in test [3] is 359 Response Units.

For the compound `COc1nc(-c2cccc3c2OCCO3)ccc1Nc1cccc(CNCC2CCC(=O)NC2)c1` (stereo not drawn) [Example 195, 5-({3-[6-(2,3-Dihydro-benzo[1,4]dioxin-5-yl)-2-methoxy-pyridin-3-ylamino]-benzylamino}-methyl)-piperidin-2-one], the values for the pIC50 in test [1] and in test [2] were 4.89 and 5.42, respectively. Also, the “SPR Response Units” value in test [3] amounted to 176 Response Units.
